# System: Escherichia coli with type 1 pili (strain 382)
# Assay type: cell-based
# Settings: minimum inhibitive concentration (mg/ml) divided by that of D-mannose, x100; lower = stronger; free mannose derivatives before copolymerization
# Description: The conducted bacteriological test is an agglutination yeast test. In fact the bacteria Escherichia coli with type 1 pili, have the capacity to agglutinate yeasts. The agglutination may be prevented by mannose derivatives. The strain 382 of Escherichia coli obtained from National Bacteriological Laboratory of Stockholm, which expresses in a stable manner type 1 pili, is used. The expression of the pili can be enhanced by growing bacteria by way of three subcultures in a nutrient broth (NB, oxiod). After culture the bacteria are centrifuged and added as suspension in the same amount of phosphate buffered saline (PBS pH 7.2). A concentration of bacteria equal to 2-3.10^9 bacteria/ml is obtained. Baker's yeasts are added as suspension into PBS at a final concentration of 5.10^8 cells/ml. The various mannose derivatives are diluted from the initial concentration of 20 mg/ml maximum in two stages in PBS. Into 50 μl of each diluted sugar 50 μl of Escherichia coli is added and incubated at room temperature for 15 min to allow interaction. Finally 50 μl of yeast is added into each tube. After another 15 min. incubation at room temperature and one night at 4° C., agglutination, in other words interaction between bacteria and yeast, is evaluated.
row,SMILES,Inhibitive activity in % [%]
1,"OCCOCCO[C@H]1OC(CO)[C@@H](O)[C@H](O)C1O (stereo partly drawn) [Compound 4, 2-[(2-hydroxy-)ethoxy-]-ethyl α-D-Mannopyranoside]",24
2,"COCCOCCO[C@H]1O[C@H](CO)[C@@H](O)[C@H](O)[C@@H]1O [Compound 7, 2-[(2-methoxy-)ethoxy-]-ethyl α-D-Mannopyranoside]",24
3,"C=CCO[C@H]1OC(CO)[C@@H](O)C(O)C1O (stereo partly drawn) [Compound 8, Allyl-α-D-mannopyranoside]",0.12
4,"OCC1O[C@H](OCc2ccccc2)C(O)[C@@H](O)[C@@H]1O (stereo partly drawn) [Compound 10, Benzyl-α-D-Mannopyranoside]",24
5,"Nc1ccc(O[C@H]2O[C@H](CO)[C@@H](O)[C@H](O)[C@@H]2O)cc1 [Compound 12, p-Aminophenyl-α-D-Mannopyranoside]",0.93
6,"O=[N+]([O-])c1ccc(O[C@H]2O[C@H](CO)[C@@H](O)[C@H](O[C@H]3O[C@H](CO)[C@@H](O)[C@H](O)[C@@H]3O)[C@@H]2O)cc1 [Compound 15, p-Nitrophenyl 3-O-α-D-Mannopyranosyl-α-DMannopyranoside]",0.70
7,O=C[C@@H](O)[C@@H](O)[C@H](O)[C@H](O)CO [D-Mannose],100
8,"CCS[C@H]1O[C@H](CO)[C@@H](O)[C@H](O)[C@@H]1O [Ethyl 1-thio-α-D-mannopyranoside, reference compound]",18
9,"CO[C@H]1O[C@H](CO)[C@@H](O)[C@H](O)[C@@H]1O [Methyl-α-D-Mannoside, reference compound]",45

# System: Escherichia coli with type 1 pili (strain 382)
# Assay type: cell-based
# Settings: agglutination test of the terpolymer directly on Escherichia coli strains; relative to D mannose = 100
row,SMILES,Inhibitative activity [%]
1,O=C[C@@H](O)[C@@H](O)[C@H](O)[C@H](O)CO [D-Mannose],100
